In patent publication US20030040506A1 (priority 2002, published 2003):

Assay: Acid stability (acid-mediated hydrolytic decomposition, simulated stomach conditions)
Assay type: physicochemical
Settings: pH 1, 25° C.; for Compound left (%): 0.3 mg/mL in dilute hydrochloric acid, HPLC
Protocol: Compounds were tested for their stability towards acid-mediated hydrolytic decomposition employing a test designed to simulate stomach conditions. Each compound was incubated at an initial concentration of 0.3 mg/mL in dilute hydrochloric acid at pH 1 for 24 hours at 25° C. HPLC was run immediately for t=0 and at intervals up to approximately 24 hours. The results for compounds of Example 2, part b, Example 9, and for comparative phosphoramidates of 2′,3′-dideoxy-adenosine (Compound 1093) and 2′,3′-didehydro-2′,3′-dideoxy-adenosine (Compound 1001), described in PCT/GB96/00580, are given in the table below.

With `COC(=O)C(C)(C)NP(=O)(OC[C@@H]1C=C[C@H](n2cnc3c(NCC4CC4)nc(N)nc32)C1)Oc1ccccc1` (relative stereo) [Example 9] as the compound, how does the “Compound left (%)” value (Time 0 hr) read?
The value was 100%.

And the “Compound left (%)” value (Time 13 hr)?
Its value is 96%.

What about the “Compound left (%)” value (Time 24 hr) of the same compound?
The value was 94%.

And the “Acid stability in words” value (after 24 hours, dilute hydrochloric acid)?
Its value is “remained intact”.
